Measured values from patent US20040110802A1, “Antibacterial benzoic acid derivatives” (priority 2002, published 2004).
Values after ≈ are worked out from the molar mass of the structure shown.

tested on: SAUR 9218; experiment: MIC Test Method, standard agar dilution; assay type: cell-based; details: agar dilution, Mueller Hinton agar, incubated overnight at 35° C.; lowest concentration that inhibits visible growth
Outline: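 MIC (μg/ml) was read as the lowest drug level without visible growth of SAUR 9218 after overnight incubation at 35 °C. Inocula of about 10^4 to 10^5 cells per spot were applied to Mueller Hinton agar containing 2-fold serial compound dilutions.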

Row | SMILES | SAUR 9218 MIC
1 | Cc1sc(C(=O)Nc2ccc(C#N)cc2C(=O)O)cc1S(=O)(=O)N(C)C(C)C(O)c1ccccc1 (stereo not shown) [drawing 953] | 32 mg/L

same assay, conditions: agar dilution, Mueller Hinton agar, incubated overnight at 35° C.; lowest concentration that inhibits visible growth; read-out: SAUR 9218 MIC

Row | SMILES | MIC
2 | CCCCOc1ccc2cc(C(=O)Nc3ccc(C#N)cc3C(=O)O)n(C)c2c1 | 16 mg/L (≈ 40.9 µM)
3 | Nc1ccc(CCNS(=O)(=O)c2cc(C(=O)Nc3ccc(Br)cc3C(=O)O)cs2)cc1 | 128 mg/L (≈ 244 µM)
4 | N#Cc1ccc(NC(=O)c2cc3cccc(NC(=O)Cc4cccc(C(F)(F)F)c4)c3[nH]2)c(C(=O)O)c1 | 0.25 mg/L (≈ 0.494 µM)
5 | Cc1ccc(-c2cccc3cc(C(=O)Nc4ccc(C#N)cc4C(=O)O)n(C)c23)s1 | 0.5 mg/L (≈ 1.2 µM)
6 | N#Cc1ccc(NC(=O)c2cc(-c3ccccc3NS(=O)(=O)c3ccc(OC(F)(F)F)cc3)on2)c(C(=O)O)c1 | 8 mg/L (≈ 14 µM)
7 | O=C(Nc1ccc(Br)cc1C(=O)O)c1cc(CCCC2CCCCC2)on1 | 4 mg/L (≈ 9.19 µM)
8 | O=C(Nc1ccc(Br)cc1C(=O)O)c1cc(-c2ccccc2F)on1 | 0.5 mg/L (≈ 1.23 µM)
9 | CCCCN(CC#N)S(=O)(=O)c1cc(C(=O)Nc2ccc(C#N)cc2C(=O)O)sc1C | 64 mg/L (≈ 139 µM)
10 | CS(=O)(=O)N(c1ccc2onc(C(=O)Nc3ccc(C#N)cc3C(=O)O)c2c1)S(C)(=O)=O | 0.125 mg/L (≈ 0.261 µM)
11 | N#Cc1ccc(NC(=O)c2cc(CNCc3ccccc3)on2)c(C(=O)O)c1 | 2 mg/L (≈ 5.31 µM)
12 | Cc1nc2cc(NS(=O)(=O)c3cc(C(=O)Nc4ccc(Br)cc4C(=O)O)sc3C)ccc2s1 | 32 mg/L (≈ 56.5 µM)
13 | O=C(Nc1ccc(Br)cc1C(=O)O)c1cc(-c2ccccc2)n[nH]1 | > 128 mg/L
14 | O=C(Nc1ccc(Br)cc1C(=O)O)c1cnc(/C=C/C2COC3(CCCCC3)O2)cn1 (stereo not shown) | 8 mg/L (≈ 16.4 µM)
15 | COCCOCCCSc1cnc(C(=O)Nc2ccc(C#N)cc2C(=O)O)cn1 | 1 mg/L (≈ 2.4 µM)
16 | CCC(=O)Nc1cccc2cc(C(=O)Nc3ccc(C#N)cc3C(=O)O)[nH]c12 | 2 mg/L (≈ 5.31 µM)
17 | N#Cc1ccc(/C=C/c2noc3ccccc23)c(C(=O)O)c1 | 64 mg/L (≈ 220 µM)
18 | CCCCCCSc1ccc(C(=O)Nc2ccc(C#N)cc2C(=O)O)cn1 | 0.125 mg/L (≈ 0.326 µM)
19 | CCCn1c(C(=O)Nc2ccc(Br)cc2C(=O)O)cc2ccccc21 | 4 mg/L (≈ 9.97 µM)
20 | N#Cc1ccc(NC(=O)c2cc3cccc(NC(=O)c4csc(SCc5ccccc5)n4)c3[nH]2)c(C(=O)O)c1 | > 128 mg/L
21 | N#Cc1ccc(NC(=O)c2ccc(SCCCOc3ccc(Br)cc3)nc2)c(C(=O)O)c1 | 0.125 mg/L (≈ 0.244 µM)
22 | CCCCCNC(=O)Nc1ccc2cc(C(=O)Nc3ccc(C#N)cc3C(=O)O)n(C)c2c1 | 0.5 mg/L (≈ 1.12 µM)

Row | SMILES | MIC
23 | Cl.N#Cc1ccc(NC(=O)c2ccc(SCc3ccccc3)nc2)c(C(=O)O)c1 | 0.25 mg/L
24 | Cn1c(C(=O)Nc2ccc(C#N)cc2C(=O)O)cc2ccc(NS(=O)(=O)c3cccc4cccnc34)cc21 | 1 mg/L (≈ 1.9 µM)
25 | C=CCn1c(C(=O)Nc2ccc(C#N)cc2C(=O)O)cc2ccccc21 | 1 mg/L (≈ 2.9 µM)
26 | N#Cc1ccc(NC(=O)c2ncc(-c3ccc4c(c3)OCO4)o2)c(C(=O)O)c1 | 2 mg/L (≈ 5.3 µM)
27 | CCCCN(CC)S(=O)(=O)c1cc(C(=O)Nc2ccc(C#N)cc2C(=O)O)sc1C | 8 mg/L (≈ 17.8 µM)
28 | CC(C)Cn1c(C(=O)Nc2ccc(Br)cc2C(=O)O)cc2ccccc21 | 2 mg/L (≈ 4.82 µM)
29 | COc1cccc(CC(=O)Nc2cccc3cc(C(=O)Nc4ccc(C#N)cc4C(=O)O)[nH]c23)c1 | 0.5 mg/L (≈ 1.07 µM)
30 | N#Cc1ccc(NC(=O)c2ccc(SCc3ncon3)nc2)c(C(=O)O)c1 | 1 mg/L (≈ 2.62 µM)
31 | N#Cc1cccc(-c2cnc(C(=O)Nc3ccc(C#N)cc3C(=O)O)o2)c1 | 2 mg/L (≈ 5.58 µM)
32 | N#Cc1ccc(NC(=O)c2noc3cc(-c4cccc(CO)c4)ccc23)c(C(=O)O)c1 | 0.125 mg/L (≈ 0.302 µM)
33 | Cc1ccsc1-c1cc(C(=O)Nc2ccc(C#N)cc2C(=O)O)no1 | 0.125 mg/L (≈ 0.354 µM)
34 | Cc1oc(C(=O)Nc2ccc(C#N)cc2C(=O)O)cc1S(=O)(=O)N1CCCC1CO (stereo not shown) | 8 mg/L (≈ 18.5 µM)
35 | N#Cc1ccc(NC(=O)c2cc3cccc(NC(=O)Cc4cccc(Cl)c4)c3[nH]2)c(C(=O)O)c1 | 0.25 mg/L (≈ 0.529 µM)
36 | N#Cc1ccc(NC(=O)c2cc3cccc(NC(=O)Cc4ccccc4C(F)(F)F)c3[nH]2)c(C(=O)O)c1 | 1 mg/L (≈ 1.97 µM)
37 | CCC(C(=O)Nc1cccc2cc(C(=O)Nc3ccc(C#N)cc3C(=O)O)[nH]c12)c1ccccc1 (stereo not shown) | 0.5 mg/L (≈ 1.07 µM)
38 | CCOc1ccc(CC(=O)Nc2cccc3cc(C(=O)Nc4ccc(C#N)cc4C(=O)O)[nH]c23)cc1 | 0.5 mg/L (≈ 1.04 µM)
39 | COc1ccc2[nH]c(C(=O)Nc3ccc(C#N)cc3C(=O)O)cc2c1 | 128 mg/L (≈ 382 µM)
40 | N#Cc1ccc(NC(=O)c2cc3ccc(OCc4ccccc4)cc3[nH]2)c(C(=O)O)c1 | 0.125 mg/L (≈ 0.304 µM)
41 | N#Cc1ccc(NC(=O)c2noc3ccc(-c4ccc(C(=O)N5CCOCC5)cc4)cc23)c(C(=O)O)c1 | 0.25 mg/L (≈ 0.504 µM)
42 | Cn1c(C(=O)Nc2ccc(C#N)cc2C(=O)O)cc2ccc(NC(=O)c3ccno3)cc21 | 0.5 mg/L (≈ 1.16 µM)
43 | CCCCCCOc1ccccc1-c1cc(C(=O)Nc2ccc(C#N)cc2C(=O)O)no1 | 0.5 mg/L (≈ 1.15 µM)

Row | SMILES | MIC
44 | N#Cc1ccc(NC(=O)c2cc3ccccc3cn2)c(C(=O)O)c1 | 1 mg/L (≈ 3.15 µM)
45 | CC(C)Sc1ccc(C(=O)Nc2ccc(C#N)cc2C(=O)O)cn1 | 0.25 mg/L (≈ 0.732 µM)
46 | N#Cc1ccc(NC(=O)c2cncc(-c3cnc4ccccc4c3)c2)c(C(=O)O)c1 | > 128 mg/L
47 | CSCCOc1cccc2cc(C(=O)Nc3ccc(C#N)cc3C(=O)O)n(C)c12 | 0.25 mg/L (≈ 0.611 µM)
48 | N#Cc1ccc(NC(=O)c2ccc(S(=O)(=O)Cc3ccccc3)nc2)c(C(=O)O)c1 | 64 mg/L (≈ 152 µM)
49 | CC(CC(=O)Nc1cccc2cc(C(=O)Nc3ccc(C#N)cc3C(=O)O)[nH]c12)CC(C)(C)C (stereo not shown) | 0.5 mg/L (≈ 1.09 µM)
50 | N#Cc1cccc(C(=O)Nc2cccc3cc(C(=O)Nc4ccc(C#N)cc4C(=O)O)[nH]c23)c1 | 1 mg/L (≈ 2.23 µM)
51 | N#Cc1ccc(NC(=O)c2cc(-c3ccccc3OCCCCCCl)on2)c(C(=O)O)c1 | 0.125 mg/L (≈ 0.275 µM)
52 | N#Cc1ccc(NC(=O)c2noc3ccc(NC(=O)Cc4ccccc4)cc23)c(C(=O)O)c1 | 1 mg/L (≈ 2.27 µM)
53 | Cc1sc(C(=O)Nc2ccc(C#N)cc2C(=O)O)cc1S(=O)(=O)N1CCN(Cc2ccccc2)CC1 | > 128 mg/L
54 | CCCCc1ccc(C(=O)Nc2ccc(Br)cc2C(=O)O)nc1 | > 128 mg/L
55 | Cc1sc(C(=O)Nc2ccc(C#N)cc2C(=O)O)cc1S(=O)(=O)N1CCc2ccccc2C1 | 4 mg/L (≈ 8.31 µM)
56 | N#Cc1ccc(NC(=O)c2cc3cccc(NC(=O)Cc4cccc(F)c4)c3[nH]2)c(C(=O)O)c1 | 0.25 mg/L (≈ 0.548 µM)
57 | N#Cc1ccc(NC(=O)c2cc3cccc(NC(=O)c4cccs4)c3[nH]2)c(C(=O)O)c1 | 0.25 mg/L (≈ 0.581 µM)
58 | O=C(Nc1ccc(Cl)cc1C(=O)O)c1cc(-c2ccccc2C(F)(F)F)on1 | 1 mg/L (≈ 2.43 µM)
59 | CS(=O)(=O)Nc1ccc2onc(C(=O)Nc3ccc(C#N)cc3C(=O)O)c2c1 | 0.5 mg/L (≈ 1.25 µM)
60 | N#Cc1ccc(NC(=O)c2coc(-c3ccccc3)n2)c(C(=O)O)c1 | 64 mg/L (≈ 192 µM)
61 | O=C(O)c1cc(Cl)ccc1NC(=O)c1cc2ccccc2n1CCCc1ccccc1 | 4 mg/L (≈ 9.24 µM)
62 | COc1ccc(C(=O)Nc2ccc(Br)cc2C(=O)O)c(OC)n1 | > 128 mg/L
63 | Cn1c(C(=O)Nc2ccc(C#N)cc2C(=O)O)cc2cccc(-c3ccccc3F)c21 | 0.25 mg/L (≈ 0.605 µM)
64 | N#Cc1ccc(NC(=O)c2ccc(SCc3nsc(Cl)n3)nc2)c(C(=O)O)c1 | 0.25 mg/L (≈ 0.579 µM)

Row | SMILES | MIC
65 | Cc1c(C(=O)Cc2cncc(C(=O)Nc3ccc(C#N)cc3C(=O)O)c2)c(=O)n(-c2ccccc2)n1C | 32 mg/L (≈ 64.6 µM)
66 | N#Cc1ccc(NC(=O)c2noc3cc(-c4ccccc4)ccc23)c(C(=O)O)c1 | 0.125 mg/L (≈ 0.326 µM)
67 | O=C(O)c1cc(Br)ccc1NC(=O)c1nsc2ccccc12 | 1 mg/L (≈ 2.65 µM)
68 | CCC(C)Oc1ccc2cc(C(=O)Nc3ccc(C#N)cc3C(=O)O)n(C)c2c1 (stereo not shown) | 16 mg/L (≈ 40.9 µM)
69 | Cn1c(C(=O)Nc2ccc(C#N)cc2C(=O)O)cc2ccc(NC(=O)N3CCOCC3)cc21 | 4 mg/L (≈ 8.94 µM)
70 | O=C(O)c1cc(Br)ccc1NC(=O)c1ncc(C(F)(F)F)cc1Cl | 64 mg/L (≈ 151 µM)
71 | COc1cccc2cc(C(=O)Nc3ccc(Br)cc3C(=O)O)oc12 | 32 mg/L (≈ 82 µM)
72 | Cc1sc(C(=O)Nc2ccc(C#N)cc2C(=O)O)cc1S(=O)(=O)N1CCC(C#N)(c2ccccc2)CC1 | 8 mg/L (≈ 15 µM)
73 | N#Cc1ccc(-c2cnc(C(=O)Nc3ccc(C#N)cc3C(=O)O)o2)cc1 | > 128 mg/L
74 | N#Cc1ccc(NC(=O)c2cc3cccc(NC(=O)Cc4ccc(-c5ccccc5)cc4)c3[nH]2)c(C(=O)O)c1 | 0.5 mg/L (≈ 0.972 µM)
75 | COc1cccc(-c2cnc(C(=O)Nc3ccc(C#N)cc3C(=O)O)o2)c1 | 0.5 mg/L (≈ 1.38 µM)
76 | O=C(O)c1cc(Cl)ccc1/C=C/c1cc(-c2ccccc2)on1 | 32 mg/L (≈ 98.2 µM)
77 | Cc1c(S(=O)(=O)NC2Cc3ccccc3C2)csc1C(=O)Nc1ccc(Br)cc1C(=O)O | 16 mg/L (≈ 29.9 µM)
78 | CCCCCSc1cnc(C(=O)Nc2ccc(Cl)cc2C(=O)O)cn1 | 0.125 mg/L (≈ 0.329 µM)
79 | COCC(C)Oc1ccccc1-c1cc(C(=O)Nc2ccc(C#N)cc2C(=O)O)no1 (stereo not shown) | 0.25 mg/L (≈ 0.593 µM)
80 | COc1ccc(CNc2cnc(C(=O)Nc3ccc(N)cc3C(=O)O)cn2)cc1 | 0.25 mg/L (≈ 0.635 µM)
81 | Cc1sc(C(=O)Nc2ccc(C#N)cc2C(=O)O)cc1S(=O)(=O)N1CCC(O)CC1 | 16 mg/L (≈ 35.6 µM)
82 | CCCCCCCCSc1cnc(C(=O)Nc2ccc(C#N)cc2C(=O)O)cn1 | 0.5 mg/L (≈ 1.21 µM)
83 | CC1(C)OCC(CCc2nc(C(=O)Nc3ccc(Br)cc3C(=O)O)co2)O1 (stereo not shown) | > 128 mg/L
84 | N#Cc1ccc(NC(=O)c2cc3cccc(NC(=O)c4ccccc4CCc4ccccc4)c3[nH]2)c(C(=O)O)c1 | 0.5 mg/L (≈ 0.946 µM)
85 | Cn1nc(C(=O)Nc2ccc(Br)cc2C(=O)O)cc1OCc1ccccc1 | 16 mg/L (≈ 37.2 µM)
